# According to US10526580B2, “Differentiated cell population of endothelial cells derived from human pluripotent stem cells, composition, system, kit and uses thereof” (BIOCANT-ASSOCIAÇÃO DE TRANSFERÊNCIA DE TECNOLOGIA, priority 2012, dated 2020):
# Columns and labels:
# [1] = system: mouse aortic endothelial cells (mAEC); assay: Gene expression in mouse aortic endothelial cells after 7-Cyclo; assay type: cell-based
# Protocol: To further validate the effects of 7-Cyclo at the embryonic vasculature, mouse embryonic ECs were incubated at day 12.5 (mAEC E12.5) and postnatal day 1 (p1) with 7-Cyclo (1 μM) for 24 h. […] In contrast, 7-Cyclo has no effect in p1 ECs. The degree of action of 7-Cyclo in mAEC E12.5 is similar to the one identified in hESC-derived ECs (FIG. 5C).
# Total RNA from experimental groups was isolated using a protocol with TRIzol (Invitrogen) and RNeasy Minikit (Qiagen, Valencia). cDNA was prepared from 1 μg total RNA using Taqman Reverse transcription reagents (Applied Biosystems, CA). Quantitative PCR (qPCR) was performed using Power SYBR Green PCR Master Mix and the detection using an ABI PRISM 7500 Fast System (Applied Biosystems). Quantification of target genes was performed relative to the reference GAPDH gene: relative expression=2^[−(Ctsample^−CtGADPH^)]. The mean minimal cycle threshold values (Ct) were calculated from 4 reactions. In some cases, gene expression in each experimental group was normalized to the relative gene expression found in HUVECs, HUAECs or undifferentiated hESCs. Primer sequences are published in Table 7 of expanded materials and methods.
# [2] = system: kinase activity of HUAECs; assay: Kinase-Glo Luminescence Kinase Assay of cells; assay type: cell-based, human; conditions: 24 h incubation, 0.1 or 1 μM
# Protocol: (§1) The kinase activity of the hESC-derived ECs and HUAECs was assessed by luminescence (signal is inversely correlated with the level of kinase activity) in the absence or presence of the compound 7-Cyclo (FIG. 6D).
# (§2) The kinase activity of cells was measured by a Kinase-Glo® Luminescence Kinase Assay (Promega). Cells incubated with 7-Cyclo for 24 h were treated with the kinase reagent from the kit and luminescence acquired using a Spectra Max Gemini luminometer. The luminescence signal is correlated with the amount of ATP present and its inversely correlated with the amount of kinase activity.
# [3] = system: kinase activity of hESC-derived ECs; assay: Kinase-Glo Luminescence Kinase Assay of cells; assay type: cell-based, human; conditions: 24 h incubation, 0.1 or 1 μM
# Protocol: as §1, §2
structure (smiles),measurement,setting,value
"Nc1ncnc2c1c(-c1ccc(Oc3ccccc3)cc1)cn2C1CCCC1 [7-Cyclo, 7-cyclopentyl-5-(4-phenoxy)phenyl-7H-pyrrolo[2,3-d]pyrimidin-4-ylamine]","inflammation, oxidative stress sensing, vascular modulation and vascular injury sensing genes","[1]; mAEC at E12.5, 1 μM for 24 h, versus cells without treatment",statistically up-regulated
same,effect on gene expression,"[1]; postnatal day 1 (p1) ECs, 1 μM for 24 h",no effect
same,kinase activity versus time zero (luminescence),[2],no significant decrease
same,kinase activity versus time zero (luminescence),[3],decreased significantly
